Source: US11286242B2 (priority 2018, dated 2022)

Key:
[1] = tested on: Pyricularia oryzae; assay: microbe, parasite or virus in culture; assay type: cell-based; conditions: 168 h, read-out: control compared to the untreated check
[2] = tested on: Alternaria solani; assay: Alternaria solani (early blight of tomato/potato) radial mycelial growth on Potato Dextrose Agar; assay type: cell-based; conditions: 168 h, Potato Dextrose Agar, 25° C., 60% relative humidity, seven days, read-out: control compared to the untreated check
Experimental: Example 4: Alternaria solani (Early Blight of Tomato/Potato)
(§1) Compounds were dissolved in 0.3% DMSO & then added to Potato Dextrose Agar medium just prior to dispensing it into petri dishes. 5 mL medium with compound in the desired concentration was dispensed into 60 mm sterile petri-plates. After solidification each plate was seeded with 5 mm size mycelial disc taken form periphery of actively growing virulent culture plate. Plates were incubated in growth chambers at 25° C. temperature and 60% relative humidity for seven days and radial growth was measured.

[3] = tested on: Colletotrichum capsici; assay: Colletotrichum capsici (anthracnose) radial mycelial growth on Potato Dextrose Agar; assay type: cell-based; conditions: Colletotrichum truncatum, 168 h, 25° C., 60% relative humidity, seven days, read-out: control compared to the untreated check
Experimental: Example 5: Colletotrichum capsici (Anthracnose)
as §1, with “solidification,” for “solidification”

[4] = tested on: Botrytis cinerea; assay: Botrytis cinerea (gray mold) radial mycelial growth on Potato Dextrose Agar; assay type: cell-based; conditions: 168 h, 22° C., 90% relative humidity, seven days, read-out: control compared to the untreated check
Experimental: Example 3: Botrytis cinerea (Gray Mold)
as §1, with “solidification,” for “solidification”, “22°” for “25°”, “90%” for “60%”

[5] = tested on: Phakopsora pachyrhizi; assay: Phakopsora pachyrhizi test in soybean, preventive spray; assay type: in vivo; conditions: preventive spray on soybean plants, inoculated one day after treatment, greenhouse 25° C., 90% relative humidity, read-out: control (efficacy, disease severity rating) compared to the untreated check
Experimental: Example 8: Phakopsora pachyrhizi Test in Soybean
Compounds were dissolved in 2% DMSO/Acetone & then mixed with water to the calibrated spray volume of 50 mL and poured into the spray bottles for further applications.
To test the preventive activity of compounds, healthy young soybean plants raised in the greenhouse were sprayed with active compound preparation at the stated application rates inside the spray cabinets using hallowcone nozzles. One day after treatment, the plants were inoculated with spore suspension containing 2.1×10^6 Phakopsora pachyrhizi inoculum. The inoculated plants were then kept in greenhouse chamber at 25° C. temperature & 90% relative humidity for disease expression.
A visual assessment of compound's performance was carried out by rating the disease severity (0-100% scale) on treated plants on 3, 7, 10 & 15 days after application. Efficacy (% control) of the compounds was calculated by comparing the disease rating in the treatment with the one of the untreated control. The sprayed plants were also assessed for compound's plant compatibility by recording symptoms like necrosis, chlorosis & stunting.

[6] = tested on: Septoria lycopersici; assay: Septoria lycopersici (leaf spot of tomato) radial mycelial growth on Potato Dextrose Agar; assay type: cell-based; conditions: 300 ppm, 25° C., 70% relative humidity, seven days
Experimental: Example 6: Septoria lycopersici (Leaf Spot of Tomato)
as §1, with “solidification,” for “solidification”, “70%” for “60%”

| Structure (SMILES) | inhibition of growth at 300 ppm [1] | inhibition of growth at 300 ppm [2] | inhibition of growth at 300 ppm [3] | inhibition of growth at 300 ppm [4] | pest or weed control at 500 ppm [5] | control compared to the untreated check [6] |
| --- | --- | --- | --- | --- | --- | --- |
| CS(=O)(=Nc1ccc(-c2noc(C(F)(F)F)n2)cc1)c1ccc(Cl)cc1 (centres unmarked) [Compound 13, (4-chlorophenyl)(methyl)((4-(5-(trifluoromethyl)-1,2,4-oxadiazol-3-yl)phenyl)imino)-λ^6-sulfanone] | > 70% | > 70% | > 70% |  |  |  |
| CS(=O)(=Nc1ccc(-c2noc(C(F)(F)F)n2)cc1)c1cccc(F)c1 (centres unmarked) [Compound 14, (3-fluorophenyl)(methyl)((4-(5-(trifluoromethyl)-1,2,4-oxadiazol-3-yl)phenyl)imino)-λ^6-sulfanone] | > 70% | > 70% |  | > 70% | > 90% |  |
| CS(=O)(=Nc1ccc(-c2noc(C(F)(F)F)n2)cc1)c1ccncc1 (centres unmarked) [Compound 15, methyl(pyridin-4-yl)((4-(5-(trifluoromethyl)-1,2,4-oxadiazol-3-yl)phenyl)imino)-λ^6-sulfanone] | > 70% | > 70% | > 70% | > 70% | > 90% |  |
| CS(=O)(=Nc1ccc(-c2noc(C(F)(F)F)n2)cc1)c1ccc(F)cc1 (centres unmarked) [Compound 17, (4-fluorophenyl)(methyl)((4-(5-(trifluoromethyl)-1,2,4-oxadiazol-3-yl)phenyl)imino)-λ^6-sulfanone] | > 70% | > 70% | > 70% | > 70% | > 90% |  |
| CS(=O)(=Nc1ccc(-c2noc(C(F)(F)F)n2)cc1)c1ccccc1 (centres unmarked) [Compound 18, methyl(phenyl)((4-(5-(trifluoromethyl)-1,2,4-oxadiazol-3-yl)phenyl)imino)-λ^6-sulfanone] | > 70% | > 70% | > 70% |  | > 90% |  |
| COc1ccc(S(C)(=O)=Nc2ccc(-c3noc(C(F)(F)F)n3)cc2)cc1 (centres unmarked) [Compound 20, (4-methoxyphenyl)(methyl)((4-(5-(trifluoromethyl)-1,2,4-oxadiazol-3-yl)phenyl)imino)-λ^6-sulfanone] | > 70% | > 70% |  |  | > 90% |  |
| CS(=O)(=NCc1ccc(-c2noc(C(F)(F)F)n2)cc1)c1ccc(Br)cc1 (centres unmarked) [Compound 22, (4-bromophenyl)(methyl)((4-(5-(trifluoromethyl)-1,2,4-oxadiazol-3-yl)benzyl)imino)-λ^6-sulfanone] | > 70% |  | > 70% |  | > 90% |  |
| COc1ccc(S(C)(=O)=NCc2ccc(-c3noc(C(F)(F)F)n3)cc2)cc1 (centres unmarked) [Compound 23, (4-methoxyphenyl)(methyl)((4-(5-(trifluoromethyl)-1,2,4-oxadiazol-3-yl)benzyl)imino)-λ^6-sulfanone] | > 70% | > 70% | > 70% | > 70% | > 90% |  |
| CS(=O)(=NC(=O)c1ccc(-c2noc(C(F)(F)F)n2)cc1)c1nccs1 (centres unmarked) [Compound 48, N-(methyl(oxo)(thiazol-2-yl)-λ^6-sulfaneylidene)-4-(5-(trifluoromethyl)-1,2,4-oxadiazol-3-yl)benzamide] |  | > 70% |  | > 70% | > 90% |  |
| CS(=O)(Cc1ccc(C(F)(F)F)cc1)=Nc1ccc(-c2noc(C(F)(F)F)n2)cc1 (centres unmarked) [Compound 90, methyl((4-(5-(trifluoromethyl)-1,2,4-oxadiazol-3-yl)phenyl)imino)(4-(trifluoromethyl)benzyl)-λ^6-sulfanone] |  |  |  | > 70% |  |  |
| COc1ccc(S(C)(=O)=Nc2ccc(-c3noc(C(F)(F)F)n3)cc2)c(OC)c1 (centres unmarked) [Compound 96, (2,4-dimethoxyphenyl)(methyl)((4-(5-(trifluoromethyl)-1,2,4-oxadiazol-3-yl)phenyl)imino)-λ^6-sulfanone] | > 70% | > 70% |  |  | > 90% |  |
| COc1ccc(S(C)(=O)=Nc2ccc(-c3noc(C(F)(F)F)n3)nc2)cc1 (centres unmarked) [Compound 108, (4-methoxyphenyl)(methyl)((6-(5-(trifluoromethyl)-1,2,4-oxadiazol-3-yl)pyridin-3-yl)imino)-λ^6-sulfanone] |  | > 70% |  | > 70% | > 90% |  |
| CS(=O)(=Nc1ccc(-c2noc(C(F)(F)F)n2)nc1)c1ccccc1 (centres unmarked) [Compound 109, methyl(phenyl)((6-(5-(trifluoromethyl)-1,2,4-oxadiazol-3-yl)pyridin-3-yl)imino)-λ^6-sulfanone] |  | > 70% |  | > 70% | > 90% |  |
| O=S1(=Nc2ccc(-c3noc(C(F)(F)F)n3)cc2)CCOCC1 [Compound 133, 4-((4-(5-(trifluoromethyl)-1,2,4-oxadiazol-3-yl)phenyl)imino)-1,4λ^6-oxathiane 4-oxide] | > 70% |  | > 70% | > 70% |  |  |
| O=S1(=Nc2ccc(-c3noc(C(F)(F)F)n3)cc2)CCCCC1 [Compound 134, 1-((4-(5-(trifluoromethyl)-1,2,4-oxadiazol-3-yl)phenyl)imino)hexahydro-1λ^6-thiopyran 1-oxide] | > 70% |  |  |  |  | more than 70% |
| CS(=O)(=NCc1cccc(-c2noc(C(F)(F)F)n2)c1)c1ccccc1 (centres unmarked) [Compound 138, methyl(phenyl)((3-(5-(trifluoromethyl)-1,2,4-oxadiazol-3-yl)benzyl)imino)-λ^6-sulfanone] | > 70% |  |  | > 70% |  |  |
| COc1ccc(S(C)(=O)=NCc2cccc(-c3noc(C(F)(F)F)n3)c2)cc1 (centres unmarked) [Compound 139, (4-methoxyphenyl)(methyl)((3-(5-(trifluoromethyl)-1,2,4-oxadiazol-3-yl)benzyl)imino)-λ^6-sulfanone] | > 70% |  |  | > 70% |  |  |
| COc1ccc(S(C)(=O)=NCc2cccc(-c3noc(C(F)(F)F)n3)c2)c(OC)c1 (centres unmarked) [Compound 140, (2,4-dimethoxyphenyl)(methyl)((3-(5-(trifluoromethyl)-1,2,4-oxadiazol-3-yl)benzyl)imino)-sulfanone] |  |  |  | > 70% |  |  |
| Cc1ccc(S(=O)(=O)NC(=O)c2ccc(-c3noc(C(F)(F)F)n3)cc2)cc1 [Compound 153, N-tosyl-4-(5-(trifluoromethyl)-1,2,4-oxadiazol-3-yl)benzamide] |  |  |  | > 70% |  |  |
| O=C(NS(=O)(=O)c1ccc(Cl)cc1Cl)c1ccc(-c2noc(C(F)(F)F)n2)cc1 [Compound 156, N-((2,4-dichlorophenyl)sulfonyl)-4-(5-(trifluoromethyl)-1,2,4-oxadiazol-3-yl)benzamide] |  |  | > 70% | > 70% |  |  |
| COc1ccc(S(=O)(=O)NC(=O)c2ccc(-c3noc(C(F)(F)F)n3)cc2)cc1 [Compound 157, N-((4-methoxyphenyl)sulfonyl)-4-(5-(trifiuoromethyl)-1,2,4-oxadiazol-3-yl)benzamide] |  | > 70% |  | > 70% |  |  |
| CS(=O)(=NC(=O)C1CC1)c1ccc(-c2noc(C(F)(F)F)n2)cc1 (centres unmarked) [Compound 181, N-(methyl(oxo)(4-(5-(trifluoromethyl)-1,2,4-oxadiazol-3-yl)phenyl)-λ^6-sulfaneylidene)cyclopropanecarboxamide] | > 70% |  | > 70% |  |  |  |
